Publication PMC5597475 (Molecular imaging and biology : MIB : the official …, 2017)

Assays:
[1] = target: LRRK2 (Rattus norvegicus, UniProt F1LNJ1); conditions: IC50 for displacement of [^3H]LRRK2-IN-1 binding, rat kidney; 10 nM radioligand
[2] = test system: WT (wild-type) LRRK2; conditions: cited from earlier work
[3] = test system: mutant G2019S type LRRK2; conditions: cited from earlier work
[4] = target: LRRK2 (Homo sapiens, UniProt Q5S007); assay type: binding
[5] = target: LRRK2 kinase; conditions: LRRK2 kinase inhibitor; cited from earlier work
[6] = target: LRRK2 (Mus musculus, UniProt Q5S006); assay: In vivo blocking study: [^3H]LRRK2-IN-1 co-administered with Pf-06447475 in mice; conditions: for % blocking (max.) of [^3H]LRRK2-IN-1 uptake: 10 mg/kg Pf-06447475, 10 mg/kg
Chain of LRRK2 (Mus musculus, UniProt Q5S006) (Q5S006 whole entry): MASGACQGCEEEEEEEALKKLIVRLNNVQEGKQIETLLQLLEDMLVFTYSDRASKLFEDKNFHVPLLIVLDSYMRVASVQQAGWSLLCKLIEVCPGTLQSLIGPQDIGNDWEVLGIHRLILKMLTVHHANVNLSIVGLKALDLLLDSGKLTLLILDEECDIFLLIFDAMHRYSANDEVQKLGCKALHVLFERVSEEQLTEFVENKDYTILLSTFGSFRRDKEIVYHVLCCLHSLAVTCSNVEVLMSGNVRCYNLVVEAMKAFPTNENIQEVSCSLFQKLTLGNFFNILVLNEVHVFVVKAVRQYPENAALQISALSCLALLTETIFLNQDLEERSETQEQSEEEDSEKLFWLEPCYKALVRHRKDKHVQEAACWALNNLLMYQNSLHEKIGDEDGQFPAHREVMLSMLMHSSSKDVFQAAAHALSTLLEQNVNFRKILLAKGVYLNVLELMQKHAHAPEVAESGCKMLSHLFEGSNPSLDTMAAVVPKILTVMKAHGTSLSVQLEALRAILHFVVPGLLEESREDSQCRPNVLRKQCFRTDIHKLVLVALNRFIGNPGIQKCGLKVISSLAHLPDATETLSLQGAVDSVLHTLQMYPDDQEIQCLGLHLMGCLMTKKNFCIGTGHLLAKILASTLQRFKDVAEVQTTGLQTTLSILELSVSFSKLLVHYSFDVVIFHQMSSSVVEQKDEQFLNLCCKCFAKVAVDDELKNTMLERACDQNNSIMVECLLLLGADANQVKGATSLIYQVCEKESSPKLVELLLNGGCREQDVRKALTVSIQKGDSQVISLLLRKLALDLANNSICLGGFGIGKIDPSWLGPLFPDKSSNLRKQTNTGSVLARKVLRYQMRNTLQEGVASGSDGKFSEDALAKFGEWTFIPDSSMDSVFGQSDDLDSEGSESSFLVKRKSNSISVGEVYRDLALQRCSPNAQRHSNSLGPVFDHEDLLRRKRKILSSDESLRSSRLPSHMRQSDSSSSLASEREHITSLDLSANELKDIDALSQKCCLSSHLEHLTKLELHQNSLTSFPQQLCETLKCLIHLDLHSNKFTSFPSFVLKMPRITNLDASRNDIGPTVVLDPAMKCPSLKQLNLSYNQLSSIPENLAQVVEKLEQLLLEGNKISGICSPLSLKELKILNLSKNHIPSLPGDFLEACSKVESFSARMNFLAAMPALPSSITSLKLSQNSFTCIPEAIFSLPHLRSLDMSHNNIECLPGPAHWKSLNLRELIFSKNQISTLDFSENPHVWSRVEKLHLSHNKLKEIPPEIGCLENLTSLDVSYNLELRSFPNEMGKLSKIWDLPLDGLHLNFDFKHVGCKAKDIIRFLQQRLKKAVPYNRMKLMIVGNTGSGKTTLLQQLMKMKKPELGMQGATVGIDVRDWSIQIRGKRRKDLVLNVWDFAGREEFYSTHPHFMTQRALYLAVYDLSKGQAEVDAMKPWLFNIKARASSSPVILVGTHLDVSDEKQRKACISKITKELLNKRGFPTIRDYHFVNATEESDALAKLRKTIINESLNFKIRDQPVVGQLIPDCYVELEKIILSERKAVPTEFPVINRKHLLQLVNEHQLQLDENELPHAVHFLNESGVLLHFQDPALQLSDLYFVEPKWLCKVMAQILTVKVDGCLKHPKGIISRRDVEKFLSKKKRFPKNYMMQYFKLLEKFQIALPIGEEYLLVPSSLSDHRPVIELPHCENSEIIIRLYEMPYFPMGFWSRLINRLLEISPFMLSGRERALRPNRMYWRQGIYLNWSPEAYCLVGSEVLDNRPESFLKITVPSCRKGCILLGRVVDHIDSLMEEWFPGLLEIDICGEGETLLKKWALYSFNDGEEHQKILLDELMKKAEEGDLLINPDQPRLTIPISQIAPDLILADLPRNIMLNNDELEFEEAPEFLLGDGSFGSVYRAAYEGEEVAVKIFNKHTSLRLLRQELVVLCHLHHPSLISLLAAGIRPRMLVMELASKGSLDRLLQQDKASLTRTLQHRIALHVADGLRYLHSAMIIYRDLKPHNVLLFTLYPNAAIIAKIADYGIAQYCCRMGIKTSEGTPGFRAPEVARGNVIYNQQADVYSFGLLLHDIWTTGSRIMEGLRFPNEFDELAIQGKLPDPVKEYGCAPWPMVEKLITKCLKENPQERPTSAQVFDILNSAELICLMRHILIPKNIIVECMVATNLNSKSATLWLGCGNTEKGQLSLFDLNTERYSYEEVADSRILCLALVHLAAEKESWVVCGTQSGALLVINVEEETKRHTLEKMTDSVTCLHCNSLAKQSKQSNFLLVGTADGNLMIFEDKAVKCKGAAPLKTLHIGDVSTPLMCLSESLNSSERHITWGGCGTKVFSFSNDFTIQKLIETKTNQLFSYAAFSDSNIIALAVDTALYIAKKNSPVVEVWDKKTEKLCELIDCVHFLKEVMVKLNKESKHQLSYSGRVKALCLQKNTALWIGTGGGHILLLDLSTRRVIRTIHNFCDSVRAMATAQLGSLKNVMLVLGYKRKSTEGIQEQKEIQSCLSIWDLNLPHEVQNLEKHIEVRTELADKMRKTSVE

Chain of LRRK2 (Rattus norvegicus, UniProt F1LNJ1) (F1LNJ1 1-2526): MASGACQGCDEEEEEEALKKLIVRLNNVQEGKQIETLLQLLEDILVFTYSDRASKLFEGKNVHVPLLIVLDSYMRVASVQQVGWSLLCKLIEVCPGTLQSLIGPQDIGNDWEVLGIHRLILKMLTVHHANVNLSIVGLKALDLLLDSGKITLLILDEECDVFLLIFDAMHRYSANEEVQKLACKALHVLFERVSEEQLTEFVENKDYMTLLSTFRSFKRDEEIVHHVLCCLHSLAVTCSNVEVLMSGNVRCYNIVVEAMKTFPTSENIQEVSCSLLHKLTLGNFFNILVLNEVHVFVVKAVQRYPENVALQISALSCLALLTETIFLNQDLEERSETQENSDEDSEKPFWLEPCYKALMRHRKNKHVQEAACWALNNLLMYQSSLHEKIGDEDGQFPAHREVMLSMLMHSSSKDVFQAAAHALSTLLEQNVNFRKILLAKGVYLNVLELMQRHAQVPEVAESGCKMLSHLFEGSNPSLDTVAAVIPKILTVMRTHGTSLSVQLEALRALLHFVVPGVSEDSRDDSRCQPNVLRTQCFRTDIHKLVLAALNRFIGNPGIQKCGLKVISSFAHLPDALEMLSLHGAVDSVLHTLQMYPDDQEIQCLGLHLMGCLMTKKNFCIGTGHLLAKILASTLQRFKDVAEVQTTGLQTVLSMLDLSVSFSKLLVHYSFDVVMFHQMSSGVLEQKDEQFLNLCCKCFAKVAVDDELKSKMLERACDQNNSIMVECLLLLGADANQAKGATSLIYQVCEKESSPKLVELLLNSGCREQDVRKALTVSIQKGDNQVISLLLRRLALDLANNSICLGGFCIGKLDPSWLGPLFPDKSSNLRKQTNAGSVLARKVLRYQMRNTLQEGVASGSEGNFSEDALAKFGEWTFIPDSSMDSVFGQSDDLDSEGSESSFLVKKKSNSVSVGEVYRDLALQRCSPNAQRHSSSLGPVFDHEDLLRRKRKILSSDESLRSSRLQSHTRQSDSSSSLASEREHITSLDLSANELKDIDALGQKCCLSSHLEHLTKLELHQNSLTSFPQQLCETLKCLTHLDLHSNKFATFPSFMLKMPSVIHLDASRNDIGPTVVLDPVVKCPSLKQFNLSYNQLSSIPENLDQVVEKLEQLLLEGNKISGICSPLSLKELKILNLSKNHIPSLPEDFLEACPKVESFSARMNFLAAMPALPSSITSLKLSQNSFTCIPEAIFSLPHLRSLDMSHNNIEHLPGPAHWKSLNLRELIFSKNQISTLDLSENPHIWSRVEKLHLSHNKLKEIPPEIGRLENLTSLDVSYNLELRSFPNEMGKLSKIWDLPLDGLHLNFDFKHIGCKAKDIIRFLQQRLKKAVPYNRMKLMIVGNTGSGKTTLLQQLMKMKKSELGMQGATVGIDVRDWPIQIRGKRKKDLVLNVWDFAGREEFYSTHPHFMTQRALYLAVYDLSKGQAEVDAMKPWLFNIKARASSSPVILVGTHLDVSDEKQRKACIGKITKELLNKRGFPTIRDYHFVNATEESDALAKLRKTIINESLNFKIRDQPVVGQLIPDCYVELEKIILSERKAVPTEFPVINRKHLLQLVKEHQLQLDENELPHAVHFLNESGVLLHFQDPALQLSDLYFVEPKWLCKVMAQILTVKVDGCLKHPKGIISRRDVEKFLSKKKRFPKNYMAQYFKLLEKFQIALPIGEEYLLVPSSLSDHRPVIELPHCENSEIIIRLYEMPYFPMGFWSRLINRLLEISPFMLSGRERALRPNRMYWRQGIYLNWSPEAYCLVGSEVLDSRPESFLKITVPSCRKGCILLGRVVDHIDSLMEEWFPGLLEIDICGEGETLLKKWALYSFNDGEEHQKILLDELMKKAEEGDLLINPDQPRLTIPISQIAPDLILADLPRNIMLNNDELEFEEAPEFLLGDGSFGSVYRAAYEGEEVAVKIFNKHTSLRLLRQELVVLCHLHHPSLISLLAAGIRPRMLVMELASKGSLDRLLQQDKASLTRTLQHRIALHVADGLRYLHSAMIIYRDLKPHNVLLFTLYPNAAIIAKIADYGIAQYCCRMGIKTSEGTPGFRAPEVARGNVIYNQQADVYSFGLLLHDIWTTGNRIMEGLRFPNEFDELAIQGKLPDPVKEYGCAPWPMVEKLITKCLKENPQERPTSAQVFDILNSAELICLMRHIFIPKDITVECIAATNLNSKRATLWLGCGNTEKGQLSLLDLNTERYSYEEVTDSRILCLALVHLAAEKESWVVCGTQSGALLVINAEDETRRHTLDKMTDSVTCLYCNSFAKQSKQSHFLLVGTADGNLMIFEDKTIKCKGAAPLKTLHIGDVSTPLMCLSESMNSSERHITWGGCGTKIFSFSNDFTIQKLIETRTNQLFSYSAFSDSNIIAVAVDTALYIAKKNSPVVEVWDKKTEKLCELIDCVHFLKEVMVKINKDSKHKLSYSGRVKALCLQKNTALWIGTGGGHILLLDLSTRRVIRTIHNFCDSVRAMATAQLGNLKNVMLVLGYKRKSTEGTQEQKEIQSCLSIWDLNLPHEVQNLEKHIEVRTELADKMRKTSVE

Row | % blocking (max.) of [^3H]LRRK2-IN-1 uptake ([6]; brain) [%] | Reduction of [^3H]LRRK2-IN-1 uptake ([6]; heart, 10 mg/kg Pf-06447475) [%] | Reduction of [^3H]LRRK2-IN-1 uptake (%ID/g) ([6]; in the kidney or brain, 10 mg/kg Pf-06447475) | % blocking (max.) of [^3H]LRRK2-IN-1 uptake ([6]; kidney) [%] | Reduction of [^3H]LRRK2-IN-1 uptake ([6]; liver, 10 mg/kg Pf-06447475) [%] | Reduction of [^3H]LRRK2-IN-1 uptake ([6]; lung, 10 mg/kg Pf-06447475) [%] | Reduction of [^3H]LRRK2-IN-1 uptake ([6]; muscle, 10 mg/kg Pf-06447475) [%] | Reduction of [^3H]LRRK2-IN-1 uptake ([6]; spleen, 10 mg/kg Pf-06447475) [%] | SMILES | IC50 [1] [nM] | IC50 [2] [nM] | IC50 [3] [nM] | IC50 [4] [nM] | IC50 [5] [nM]
1 | – | – | – | – | – | – | – | – | COc1cc(C(=O)N2CCC(N3CCN(C)CC3)CC2)ccc1Nc1ncc2c(n1)N(C)c1ccccc1C(=O)N2C [LRRK2-IN-1] | 40 ± 4 | 13 | 6 | 73 ± 6 | –
2 | 62 | 72 | 50–60% | 54 | 34 | 78 | 62 | 40 | N#Cc1cccc(-c2c[nH]c3ncnc(N4CCOCC4)c23)c1 [Pf-06447475, 3-[4-(morpholin-4-yl)-7H-pyrrolo[2,3-d]pyrimidin-5-yl] benzonitrile] | – | – | – | – | 3
